Data from publication PMC12226733, “Evolution of iGluR ligand specificity, polyamine regulation, and ion selectivity inferred from a placozoan epsilon receptor” (Communications Biology, 2025).
Numbering of substitutions follows the chain as printed. Where “and” joins values, the source holds several entries; their conditions need not be identical. Equal entries are not always repeated. Where two headings read alike, the source gives them in different places.

What was measured:
GluE1αA wildtype [1] = assay type: cell-based, Trichoplax adhaerens
GluE1αA D646A [2] = assay type: cell-based, Trichoplax adhaerens
GluE1αA S642R [3] = assay type: cell-based, Trichoplax adhaerens
GluE1αA S642Q plus D646A [4] = assay type: cell-based, Trichoplax adhaerens
GluE1αA S642R [5] = assay type: cell-based, Trichoplax adhaerens; remark: listed apart in the source
GluE1αA D646A [6] = assay type: cell-based, Trichoplax adhaerens; remark: listed apart in the source
GluE1αA S642Q [7] = biological target: T1, GluE1αA S642Q (Trichoplax adhaerens, UniProt B3SAW0, S167Q); assay type: cell-based
T1 sequence (B3SAW0 1-341 S167Q): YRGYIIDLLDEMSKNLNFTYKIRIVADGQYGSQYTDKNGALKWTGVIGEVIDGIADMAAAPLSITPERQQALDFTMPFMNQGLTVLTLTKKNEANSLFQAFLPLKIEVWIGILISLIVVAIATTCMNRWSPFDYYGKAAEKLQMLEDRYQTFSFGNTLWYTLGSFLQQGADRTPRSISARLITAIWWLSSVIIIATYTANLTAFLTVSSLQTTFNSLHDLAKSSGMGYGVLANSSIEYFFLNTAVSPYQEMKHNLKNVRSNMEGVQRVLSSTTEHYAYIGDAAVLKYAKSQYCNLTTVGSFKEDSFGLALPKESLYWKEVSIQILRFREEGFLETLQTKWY

GluE1αA wildtype [8] = assay type: cell-based, Trichoplax adhaerens; remark: listed apart in the source
GluE1αA S642N [9] = biological target: T2, GluE1αA S642N (Trichoplax adhaerens, UniProt B3SAW0, S167N); assay type: cell-based
T2 sequence (B3SAW0 1-341 S167N): T1 sequence (B3SAW0 1-341 S167Q) with Q167N

GluE1αA S642Q [10] = biological target: T1, GluE1αA S642Q; assay type: cell-based; remark: listed apart in the source
GluE1αA S642N [11] = biological target: T2, GluE1αA S642N; assay type: cell-based; remark: listed apart in the source
GluE1αA S642Q plus D646A [12] = assay type: cell-based, Trichoplax adhaerens; remark: listed apart in the source
[13] = test system: GluE1αA m2 variant (S653G, I655T); assay type: cell-based, Trichoplax adhaerens
From the text: (§1) As noted, a model has been put forward that defines iGluR ligand specificity based on a set of key amino acids in the LBD of iGluRs[11]. […] To the best of our knowledge, whether these few positions are indeed solely responsible for ligand specificity, and moreover, can be altered to switch specificity for natural ligands, has not been experimentally tested. […] We also created a triple mutant, with an additional phenylalanine to tyrosine mutation at position 732 (F732Y; m3 variant), to make the T. adhaerens epsilon receptor resemble GluN2A and GluA2 receptors from human, reasoning that this mutation might enhance glutamate sensitivity. We also generated a single F732Y mutant (m1 variant), to assess the contribution of this amino acid to ligand specificity in isolation.
(§2) The cDNA of the T. adhaerens GluE1αA receptor was cloned into the mammalian expression vector pIRES2-EGFP, using a 5’ nested primer that inserted a mammalian consensus Kozak sequence of […] (Supplementary Table 5). Several mutants/variants of this receptor where also prepared via site directed mutagenesis using standard procedures and primers listed in Supplementary Table 5. For electrophysiological comparisons, we commissioned GenScript (USA) to synthesize the cDNA of the human GluA2 […] receptor (NCBI accession number NP_001077088.2), which was cloned into the pIRES2-EGFP vector with a Kozak sequence flanking the start codon and restriction enzymes SalI and BamHI at the 5’ and 3’ ends of the cDNA, respectively. Receptor cDNAs in the various pIRES2 constructs were transfected into Chinese Hamster Ovary-K1 (CHO-K1; Sigma) cells cultured in Dulbecco’s Modified Eagle Medium Nutrient Mixture F-12 (DMEM/F12) supplemented with 10% Fetal Bovine Serum (FBS) and 1% penicillin-streptomycin at 37°C. Transfections were done with 2 μg of plasmid vector using the transfecting reagent PolyJet^TM (SignaGen Laboratories, USA) according to the manufacturer’s instructions and plated onto glass coverslips in 35 mm dishes the next day. Transfected cells were incubated at 28°C for 2 to 4 days, then coverslips were transferred to a new 60 mm dish with 5 mL of external recording solution. […] Agonists and pharmacological compounds used in this study were dissolved in corresponding external solutions. […] Patch pipettes were pulled using a P-1000 micropipette puller (Sutter, USA), from thick-walled borosilicate tubing (1.5 and 0.86 outer and inner diameter, respectively), to a resistance of between 1 and 6 megaohms.

[14] = test system: GluE1αA m3 variant (S653G, I655T, F732Y); assay type: cell-based, Trichoplax adhaerens; settings: m3
From the text: as §1, §2

[15] = test system: GluE1αA m1 variant (F732Y); assay type: cell-based, Trichoplax adhaerens
From the text: as §1, §2

[16] = biological target: T3, T. adhaerens GluE1αA receptor (wildtype) (Trichoplax adhaerens, UniProt B3SAW0); settings: 2 s pulse of 3 mM glycine, wash of increasing duration, 2 s test pulse; single exponential; n = 10
From the text: as §2

[17] = biological target: T3, T. adhaerens GluE1αA receptor (wildtype); experiment: whole-cell patch clamp, agonist-evoked currents in CHO-K1 cells; assay type: cell-based
[18] = m1, ligand 10 mM, normalized to glycine

T3 sequence (B3SAW0 entry or part of it): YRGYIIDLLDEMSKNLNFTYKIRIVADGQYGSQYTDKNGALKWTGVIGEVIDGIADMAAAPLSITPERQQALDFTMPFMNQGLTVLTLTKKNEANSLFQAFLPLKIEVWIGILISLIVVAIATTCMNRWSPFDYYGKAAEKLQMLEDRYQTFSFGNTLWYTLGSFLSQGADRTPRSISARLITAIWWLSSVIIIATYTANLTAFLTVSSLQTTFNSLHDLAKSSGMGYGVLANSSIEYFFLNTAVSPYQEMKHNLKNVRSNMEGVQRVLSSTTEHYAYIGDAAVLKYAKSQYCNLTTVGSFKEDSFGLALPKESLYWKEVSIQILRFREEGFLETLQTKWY

Q: How did the “Avg of recordings (Figure S7c, G-V, normalized)” value (GluE1αA wildtype [1]) turn out when `[Cs+]` [Cs] was run?
A: 0.58 and 0.69 and 0.78 and 0.80 and 1.00 and 0.93 and 0.77 and 0.60

Q: And the pCs/pNa (GluE1αA wildtype [1])?
A: 0.95 and 0.96 and 0.99 and 0.93 and 0.92

Q: What about the pCs/pNa (GluE1αA D646A [2]) of the same compound?
A: 1.01 and 0.96 and 0.98 and 0.97 and 1.08

Q: And the pCs/pCa (GluE1αA S642R [3])?
A: 2.85 and 2.43 and 1.93 and 2.69 and 2.80 and 3.78

Q: What about the “Cs vs Ca, Avg (Figure S8e, normalized G-V)” value (GluE1αA S642Q plus D646A [4]) of the same compound?
A: 1.00 and 1.03 and 0.98 and 1.02 and 1.15 and 1.27 and 1.40 and 1.41

Q: And the pCs/pCa (GluE1αA S642Q plus D646A [4])?
A: 7.48 and 6.98 and 7.28 and 7.47 and 4.49 and 4.01 and 6.97 and 6.40

Q: What about the pCs/pNa (GluE1αA S642R [5]) of the same compound?
A: 0.92 and 0.78 and 0.83 and 0.84 and 0.81 and 0.79 and 0.82

Q: And the “Cs vs Ca, Avg (Figure S8e, normalized G-V)” value (GluE1αA D646A [6])?
A: 1.00 and 0.97 and 0.90 and 0.81 and 0.79 and 0.75 and 0.88

Q: What about the pCs/pCa (GluE1αA D646A [6]) of the same compound?
A: 1.12 and 1.10 and 0.98 and 1.02 and 1.05 and 0.97

Q: What about the pCs/pCa (GluE1αA S642Q [7]) of the same compound?
A: 8.99 and 7.25 and 7.15 and 8.09 and 7.84 and 7.74 and 7.89

Q: And the pCs/pCa (GluE1αA wildtype [8])?
A: 1.08 and 0.98 and 1.16 and 1.36 and 1.19 and 1.14

Q: And the pCs/pCa (GluE1αA S642N [9])?
A: 5.26 and 5.24 and 5.82 and 3.13 and 4.33 and 4.04

Q: What about the pCs/pNa (GluE1αA S642Q [10]) of the same compound?
A: 0.77 and 1.08 and 1.06 and 1.15 and 1.01 and 1.25

Q: And the pCs/pNa (GluE1αA S642N [11])?
A: 1.10 and 1.06 and 1.08 and 0.97 and 0.98 and 0.82

Q: And the pCs/pNa (GluE1αA S642Q plus D646A [12])?
A: 1.15 and 1.09 and 1.10 and 1.24 and 1.08 and 1.02

Q: `NCC(=O)O` [glycine] was tested. Which “normalized peak inward current, Avg” value [13] did it give?
A: 0.37 and 0.38

Q: What about the “normalized peak inward current, single recording” value [13] of the same compound?
A: 0.36 and 0.37 and 0.44 and 0.40 and 0.28 and 0.49 and 0.42 and 0.34

Q: And the “normalized peak inward current, Avg” value ([14]; agonist 1 mM)?
A: 0.0155

Q: And the “normalized peak inward current, Avg” value ([14]; ligand 10 mM, normalized to glutamate)?
A: 0.0446

Q: What about the EC50 ([15]; m1 (F732Y) variant, dose response of normalized current) of the same compound?
A: 300 ± 40 µM

Q: What about the “normalized current (dose response), Avg” value ([15]; m1, glycine 0.03 mM) of the same compound?
A: 0.00429

Q: What about the “normalized current (dose response), single recording” value ([15]; m1, glycine 0.03 mM) of the same compound?
A: 0.00434 and 0.00425

Q: And the “normalized current (dose response), Avg” value ([15]; m1, glycine 0.1 mM)?
A: 0.0331

Q: And the “normalized current (dose response), Avg” value ([15]; m1, glycine 0.3 mM)?
A: 0.50

Q: What about the “normalized current (dose response), single recording” value ([15]; m1, glycine 0.3 mM) of the same compound?
A: 0.36 and 0.35 and 0.56 and 0.51 and 0.57 and 0.65 and 0.62

Q: What about the “normalized current (dose response), Avg” value ([15]; m1, glycine 1 mM) of the same compound?
A: 0.98

Q: And the “normalized current (dose response), single recording” value ([15]; m1, glycine 1 mM)?
A: 0.97 and 1.00 and 0.96

Q: And the “normalized current (dose response), Avg” value ([15]; m1, glycine 3 mM)?
A: 0.99

Q: What about the “normalized current (dose response), single recording” value ([15]; m1, glycine 3 mM) of the same compound?
A: 1.00 and 0.99 and 0.96

Q: And the “normalized current (dose response), Avg” value ([15]; m1, glycine […])?
A: 0.85

Q: And the “normalized peak inward current, Avg” value [15, 18]?
A: 1.00

Q: And the “normalized peak inward current, single recording” value [15, 18]?
A: 0.93 and 1.04 and 1.03 and 0.96

Q: And the “time constant of recovery from desensitization (τ)” value [16]?
A: 184 ± 45 ms

Q: And the “activation of ligand-gated current” value [17]?
A: activated

Q: And the “normalized peak inward current, Avg” value [17]?
A: 1.02 and 1.00

Q: What about the sensitivity to agonist [17] of the same compound?
A: robust currents
